The values below come from ChEMBL document CHEMBL1122959, “3-Hydroxy-3-methylglutaryl-coenzyme A reductase inhibitors. 1. Structural modification of 5-substituted 3,5-dihydroxypentanoic acids and their lactone derivatives” (J Med Chem, 1985).

pIC50: −log10 of the molar value.

Assay [1] deals with T1, 3-hydroxy-3-methylglutaryl-coenzyme A reductase (Rattus norvegicus) (UniProt P51639).
T1 sequence (whole entry): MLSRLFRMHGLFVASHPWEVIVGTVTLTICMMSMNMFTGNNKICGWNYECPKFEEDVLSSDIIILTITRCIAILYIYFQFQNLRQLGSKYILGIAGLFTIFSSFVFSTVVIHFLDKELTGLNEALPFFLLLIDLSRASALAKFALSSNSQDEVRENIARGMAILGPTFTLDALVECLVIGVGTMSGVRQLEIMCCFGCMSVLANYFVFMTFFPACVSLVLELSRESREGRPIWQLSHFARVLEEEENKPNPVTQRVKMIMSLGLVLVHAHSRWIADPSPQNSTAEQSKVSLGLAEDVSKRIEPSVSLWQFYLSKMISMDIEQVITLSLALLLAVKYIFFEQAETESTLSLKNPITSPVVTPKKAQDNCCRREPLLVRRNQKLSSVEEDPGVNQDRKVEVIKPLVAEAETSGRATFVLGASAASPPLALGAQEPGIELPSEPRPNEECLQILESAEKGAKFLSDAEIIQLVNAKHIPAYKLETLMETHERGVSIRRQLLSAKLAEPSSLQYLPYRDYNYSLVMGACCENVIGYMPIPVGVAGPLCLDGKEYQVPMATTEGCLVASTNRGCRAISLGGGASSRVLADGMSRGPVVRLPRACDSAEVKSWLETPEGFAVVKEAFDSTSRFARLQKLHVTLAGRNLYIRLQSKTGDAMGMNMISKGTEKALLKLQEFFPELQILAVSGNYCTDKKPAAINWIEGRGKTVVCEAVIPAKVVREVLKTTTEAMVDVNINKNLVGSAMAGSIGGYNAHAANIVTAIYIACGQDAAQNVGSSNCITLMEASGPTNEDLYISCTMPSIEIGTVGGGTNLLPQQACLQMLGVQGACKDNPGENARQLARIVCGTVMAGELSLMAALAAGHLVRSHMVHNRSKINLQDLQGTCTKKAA
Put plainly: Inhibitory activity against partially purified rat liver HMG CoA reductase at 2 ug/ml concentration.

Assay [2] deals with T1, 3-hydroxy-3-methylglutaryl-coenzyme A reductase (Rattus norvegicus). Put plainly: Inhibitory activity against partially purified rat liver HMG CoA reductase at 4 ug/ml concentration.
For assay [3] the target is unchanged. Put plainly: Inhibitory activity against partially purified rat liver HMG CoA reductase at 6 ug/ml concentration.
For assay [4] the target is unchanged. Put plainly: Inhibitory activity against partially purified rat liver HMG CoA reductase at 1.0 ug/ml concentration.
For assay [5], the target named is T2, 3-hydroxy-3-methylglutaryl-coenzyme A reductase (Rattus norvegicus, UniProt P51639).
T2 sequence (P51639 whole entry): T1 sequence (whole entry)
Put plainly: In vitro inhibitory activity against HMG CoA reductase.

For assay [6], the target named is T1, 3-hydroxy-3-methylglutaryl-coenzyme A reductase (Rattus norvegicus). Put plainly: Relative potency against HMG CoA reductase.
The target is the same in assay [7]. Put plainly: Inhibitory activity against partially purified rat liver HMG CoA reductase at 0.35 ug/ml concentration.
Assay [8] shares this target. Put plainly: Inhibitory activity against partially purified rat liver HMG CoA reductase at 0.75 ug/ml concentration.

For the compound `CO[C@H]1C[C@H](O)C[C@@H](/C=C/c2ccc(Cl)cc2Cl)O1`, the results for the inhibition in assay [1], in assay [2] and in assay [3] were 0%, 2% and 4%, respectively.

Regarding `O=C1C[C@H](O)C[C@@H](/C=C/c2cccc3ccc4ccccc4c23)O1`, the figures for the inhibition in assay [4], in assay [7] and in assay [8] were 64%, 39% and 58%, respectively. In assay [5], this compound had a pIC50 of 5.72. Further, the Relative potency in assay [6] came to 1.1.

In general, inhibition refers to the drop in the measured response relative to a control, in per cent. Usually pIC50 stands for −log10 of the IC50, conventionally taken in molar units. A low value points to a high IC50.
